Measured values from article PMC7442133, “Reduced treatment frequencies with bumped kinase inhibitor 1369 are effective against porcine cystoisosporosis” (International Journal for Parasitology: Drugs and Drug …, 2020).

Experiments:
[1] = Fecal drug kinetics: BKI concentrations in pooled feces by LC-MS/MS; assay type: in vivo, piglets
Method: Additionally, to determine exposure to BKI 1369 and its metabolites, BKI 1318 and BKI 1817, pooled fecal samples per group were collected before treatment (−24 h), 2, 24 and 48 h after treatment and at the end of the study (SD 29; experiment I). Approximately 1 g of feces was soaked overnight in 3 ml phosphate buffered saline (PBS, pH 7.4). The following day, 12 ml of acetonitrile containing 100 μM propanolol as an internal standard was added and the mixture was thoroughly vortexed and centrifuged at 1000×g for 30 min. Clear supernatant was then transferred to Eppendorf tubes and concentrated in a miVac® Duo Concentrator (SP Scientific, Pennsylvania, USA) at 35 °C. Control/blank samples spiked with known amounts of target analyte were processed in tandem to provide a standard curve. The concentrated samples were shipped to the University of Washington and were stored at −20 °C until analysis by liquid chromatography-tandem mass spectrometry (LC-MS/MS) to determine fecal pharmacokinetics. All LC-MS/MS analyses were carried out on a Waters Acquity UPLC coupled with a Xevo TQS Micro and analyzed using MassLynx software (Waters Corporation, Milford, MA, USA). Extraction and LC-MS/MS conditions are described in detail in the Supplementary File S1.
(§1) Tissue and feces from vehicle control treated piglets were used as blanks or standards. Calibration curves for BKI 1369, BKI 1318, and BKI 1817 were prepared by adding 2 μL BKI in dimethylsulfoxide (DMSO) to 18 μL tissue or feces controls to generate nominal concentrations of 0.004, 0.008, 0.02, 0.04, 0.08, 0.2, 0.4, 0.8, 2, 5, 10, and 20 μM. Calibration curves were generated separately for each tissue type and feces.
(§2) 5 μL of tissue homogenate curves and samples were added to tubes that contained 95 μL of 80:20 acetonitrile: water. As an internal standard, propranolol was added to each sample to a final concentration of 20 nM. Samples were dried to completion using a miVac Duo Concentrator (SP Scientific, Pennsylvania, USA) at 35 °C. Sample processing for feces was similar but utilized a slightly different process to concentrate the sample as explained in the methods. Dried Samples were sealed and shipped to the University of Washington for LC-MS/MS analysis.

[2] = parameters: species or system piglets; conditions: in vivo
Method: In experiment II, additional fecal samples were collected from piglets which shed oocysts after treatment with BKI 1369. Fecal DNA preparation was carried out by established procedures. PCR assays were used for the amplification of the genomic DNA fragments encoding CsCDPK1. PCR assays used primers upstream (166 and 91 base pairs of the start codon) and downstream (89 and 39 base pairs) of the CsCDPK1 stop codon fragment to generate templates for a subsequent nested run. Nested PCR amplification of the 5955 base pair fragment was achieved using the primer pair LIC_CsCDPK_Fwd: […] and LIC_CsCDPK_Rev: […]. PCR amplicons were cloned into TA TOPO 2 vectors (Invitrogen, Carlsbad, California, USA) and sequenced at GENEWIZ Inc. (Seattle, USA) to confirm the presence or absence of mutations that could affect drug sensitivity. Moreover, two piglets from each group were sacrificed at the end of the study (SD 29; 24 days after treatment) and tissue samples (liver, muscle, kidney, backfat, jejunum) were collected and processed similar to the fecal samples in experiment I, except that 20 nM propranolol was used as an internal standard instead of 100 μM, to determine residues of BKI 1369 and its metabolites.
as §1, §2

[3] = Group A (20 mg BKI 1369/kg BW; 0 dpi), SD 2, −24 h (before treatment)
[4] = Group A (20 mg BKI 1369/kg BW; 0 dpi), SD 3, 2 h post first-dose
[5] = Group A (20 mg BKI 1369/kg BW; 0 dpi), SD 4, 24 h post first-dose
[6] = Group A (20 mg BKI 1369/kg BW; 0 dpi), SD 5, 48 h post first-dose
[7] = Group A (20 mg BKI 1369/kg BW; 0 dpi), SD 29, 624 h post first-dose
[8] = Group A: single treatment 20 mg BKI 1369/kg on SD 3, pooled feces
[9] = Group A: single treatment 20 mg BKI 1369/kg on SD 3, pooled feces, post dose
[10] = Group B (20 mg BKI 1369/kg BW; 2 dpi), SD 4, −24 h (before treatment)
[11] = Group B (20 mg BKI 1369/kg BW; 2 dpi), SD 5, 2 h post first-dose
[12] = Group B (20 mg BKI 1369/kg BW; 2 dpi), SD 6, 24 h post first-dose
[13] = Group B (20 mg BKI 1369/kg BW; 2 dpi), SD 7, 48 h post first-dose
[14] = Group B (20 mg BKI 1369/kg BW; 2 dpi), SD 29, 576 h post first-dose
[15] = Group B: single treatment 20 mg BKI 1369/kg on SD 5, pooled feces
[16] = Group B: single treatment 20 mg BKI 1369/kg on SD 5, pooled feces, post-dose
[17] = Group C (20 mg BKI 1369/kg BW; 2 and 4 dpi), SD 4, −24 h (before treatment)
[18] = Group C (20 mg BKI 1369/kg BW; 2 and 4 dpi), SD 5, 2 h post first-dose
[19] = Group C (20 mg BKI 1369/kg BW; 2 and 4 dpi), SD 6, 24 h post first-dose
[20] = Group C (20 mg BKI 1369/kg BW; 2 and 4 dpi), SD 7, 48/2 h post 2nd dose
[21] = Group C (20 mg BKI 1369/kg BW; 2 and 4 dpi), SD 8, 72/24 h post 2nd dose
[22] = Group C (20 mg BKI 1369/kg BW; 2 and 4 dpi), SD 9, 96/48 h post 2nd dose
[23] = Group C (20 mg BKI 1369/kg BW; 2 and 4 dpi), SD 29, 576/528 h post 2nd dose
[24] = Group C: 20 mg BKI 1369/kg on SD 5 and SD 7, pooled feces, post first-dose

| Compound | Concentration in pooled fecal samples [1, 3] [nM] | Concentration in pooled fecal samples [1, 4] [nM] | Concentration in pooled fecal samples [1, 5] [nM] | Concentration in pooled fecal samples [1, 6] [nM] | Concentration in pooled fecal samples [1, 7] [nM] | Cmax [1, 8] [nM] | Fecal Tmax [1, 9] [h] | Concentration in pooled fecal samples [1, 10] [nM] | Concentration in pooled fecal samples [1, 11] [nM] | Concentration in pooled fecal samples [1, 12] [nM] | Concentration in pooled fecal samples [1, 13] [nM] | Concentration in pooled fecal samples [1, 14] [nM] | Cmax [1, 15] [nM] | Fecal Tmax [1, 16] [h] | Concentration in pooled fecal samples [1, 17] [nM] | Concentration in pooled fecal samples [1, 18] [nM] | Concentration in pooled fecal samples [1, 19] [nM] | Concentration in pooled fecal samples [1, 20] [nM] | Concentration in pooled fecal samples [1, 21] [nM] | Concentration in pooled fecal samples [1, 22] [nM] | other results |
| --- | --- | --- | --- | --- | --- | --- | --- | --- | --- | --- | --- | --- | --- | --- | --- | --- | --- | --- | --- | --- | --- |
| CCOc1ccc2cc(-c3nn(CC4CCN(C)CC4)c4ncnc(N)c34)ccc2n1 [BKI 1369] | 0 | 800 | 8100 | 5500 | 0 | 8100 | 24 | 0 | 0 | 800 | 3000 | 0 | 3000 | 48 | 0 | 0 | 4500 | 37000 | 19700 | 29200 | Concentration in pooled fecal samples [1, 23]: 0 nM; Fecal Tmax [1, 24]: 48 h; Time of fecal peak, in general ([1]; all groups, metabolite levels continued to rise beyond 48 h): 24 to 48 h; Quantifiable residue values, all tissue types [2]: below 0.2 μM; Residue in fat [2]: above background, but below LoQ; Residue in jejunum [2]: above background, but below LoQ |
| CCOc1ccc2cc(-c3nn(CC4CCNCC4)c4ncnc(N)c34)ccc2n1 [BKI 1318] | 0 | 0 | 300 | 400 | 0 | 400 | 48 | 0 | 0 | 0 | 700 | 0 | 700 | 48 | 0 | 0 | 300 | 1900 | 3600 | 7000 | Concentration in pooled fecal samples [1, 23]: 300 nM; Cmax ([1]; Group C: 20 mg BKI 1369/kg on SD 5 and SD 7, pooled feces): 7000 nM; Fecal Tmax [1, 24]: 96 h; Excretion via the feces (in words) ([1]; after oral BKI 1369, piglets): relatively low excretion via the feces; Residue in liver [2]: -Samples above LoQ BKI 1318: N/A -Samples above background, but below LoQ BKI 1318: liver from piglet 304 and muscle from piglet 302 |
